Holding throughout (assay): microbe, parasite or virus in culture
Format in all cases: cell-based

One assay deals with Septoria tritici. As to conditions: Zymoseptoria tritici, 168 h.
For another assay, the system named is Phytophthora infestans. The settings on record: 168 h, read-out: Fungal growth at 31 ppm (%) PHYTIN.
A further assay has as its system Fusarium culmorum. The settings on record: 168 h.

With `CO/N=C(/C(=O)OC)c1cccc(C)c1CO/N=C(\C)c1cccc(F)n1` [Example 106], the activity at 31 ppm with Septoria tritici was 13%; with Phytophthora infestans, 0%.

Consider `CNC(=O)/C(=N/OC)c1cccc(C)c1CO/N=C(\C)c1cc(C(F)(F)F)ccn1` [Example 5, (2E)-2-methoxyimino-N-methyl-2-[3-methyl-2-[[(E)-1-[4-(trifluoromethyl)-2-pyridyl]-ethylideneamino]oxymethyl]phenyl]acetamide], for which the activity at 31 ppm in the assay on Fusarium culmorum amounted to 8%; in the assay on Septoria tritici, 19%; in the assay with Phytophthora infestans, 20%.

With `CO/N=C(/C(=O)OC)c1cccc(C)c1CO/N=C(\C)c1cc(C(F)(F)F)cc(C)n1` [Example 46], the results for the activity at 31 ppm in the assay on Fusarium culmorum, in the assay with Septoria tritici and with Phytophthora infestans were 1%, 0% and 0%, respectively.

The compound `CO/N=C(/C(=O)OC)c1cccc(C)c1CO/N=C(\C)c1cc(-c2ccc(F)cc2)sn1` [Example 11, Methyl (2E)-2-[2-[[(E)-1-[5-(4-fluorophenyl)isothiazol-3-yl]ethylideneamino]oxymethyl]-3-methyl-phenyl]-2-methoxyimino-acetate] yielded an activity at 31 ppm in the assay with Septoria tritici of 10%.

Consider `CNC(=O)/C(=N/OC)c1cccc(C)c1CO/N=C(\C)c1cccc(C(F)F)n1` [Example 10], for which the values for the activity at 31 ppm in the assay with Fusarium culmorum, with Septoria tritici and in the assay with Phytophthora infestans were 9%, 2% and 0%, respectively.

Turning to `CNC(=O)/C(=N/OC)c1cccc(C)c1CO/N=C(\C)c1cc(C(F)F)ccn1` [Example 37], the figures for the activity at 31 ppm with Fusarium culmorum, in the assay on Septoria tritici and in the assay with Phytophthora infestans were 12%, 3% and 0%, respectively.

`CO/N=C(/C(=O)OC)c1cccc(C)c1CO/N=C(\C)c1cccnc1` [Example 131]: the activity at 31 ppm in the assay with Septoria tritici was found to be 17%; in the assay with Phytophthora infestans, 0%.

With `CO/N=C(/C(=O)OC)c1cccc(C)c1CO/N=C(\C)c1cc(C(F)F)ccn1` [Example 34], the activity at 31 ppm is 10% in the assay on Fusarium culmorum, 0% in the assay on Septoria tritici and 1% in the assay on Phytophthora infestans.

Regarding `CO/N=C(/C(=O)OC)c1cccc(C)c1CO/N=C(\C)c1cccc(C)n1` [Example 65], the values for the activity at 31 ppm in the assay on Septoria tritici and in the assay with Phytophthora infestans were 0% and 1%, respectively.

In the assay on Septoria tritici, `CO/N=C(/C(=O)OC)c1cccc(C)c1CO/N=C(\C)c1cccc(OC)n1` [Example 6] registered an activity at 31 ppm of 7%.

As to `CO/N=C(/C(=O)OC)c1cccc(C)c1CO/N=C(\C)c1cc(C#N)ccn1` [Example 54], the results for the activity at 31 ppm in the assay on Fusarium culmorum, with Septoria tritici and in the assay with Phytophthora infestans were 14%, 4% and 2%, respectively.

Regarding `CNC(=O)/C(=N/OC)c1cccc(C)c1CO/N=C(\C)c1cc(/C(C)=N/OC)ccn1` [Example 30, (2E)-2-Methoxyimino-2-[2-[[(E)-1-[4-[(E)-N-methoxy-C-methyl-carbonimidoyl]-2-pyridyl]ethylideneamino]oxymethyl]-3-methyl-phenyl]-N-methyl-acetamide], the activity at 31 ppm is 10% in the assay on Fusarium culmorum, 2% in the assay with Septoria tritici and 0% with Phytophthora infestans.

For the compound `CO/N=C(/C(=O)OC)c1cccc(C)c1CO/N=C(\C)c1cccc(C(F)F)n1` [Example 9], the figures for the activity at 31 ppm with Septoria tritici and in the assay on Phytophthora infestans were 4% and 5%, respectively.

On to `CO/N=C(/C(=O)OC)c1cccc(C)c1CO/N=C(\C)c1cc(C(F)(F)F)ncn1` [Example 113, Methyl (2E)-2-methoxyimino-2-[3-methyl-2-[[(E)-1-[6-(trifluoromethyl)pyrimidin-4-yl]ethylideneamino]oxymethyl]phenyl]acetate], for which the values for the activity at 31 ppm with Fusarium culmorum, in the assay on Septoria tritici and in the assay with Phytophthora infestans were 1%, 0% and 0%, respectively.

Regarding `CNC(=O)/C(=N/OC)c1cccc(C)c1CO/N=C(\C)c1cn(C)nc1C(F)F` [Example 50], the activity at 31 ppm was 18% in the assay on Fusarium culmorum and 0% in the assay on Phytophthora infestans.

Regarding `CNC(=O)/C(=N/OC)c1cccc(C)c1CO/N=C(\C)c1cccc(SC)n1` [Example 93], the activity at 31 ppm was 17% with Fusarium culmorum, 13% with Septoria tritici and 0% with Phytophthora infestans.

Take `CO/N=C(\C)c1cccc(/C(C)=N/OCc2c(C)cccc2/C(=N\OC)C(=O)OC)n1` [Example 31]: the activity at 31 ppm in the assay with Septoria tritici stood at 13%.

For `CNC(=O)/C(=N/OC)c1cccc(C)c1CO/N=C(\C)c1cc(C(F)(F)F)cc(Cl)n1` [Example 43], the activity at 31 ppm with Fusarium culmorum turned out to be 14%; with Septoria tritici it was 13%; in the assay on Phytophthora infestans, 9%.

`CO/N=C(/C(=O)OC)c1cccc(C)c1CO/N=C(\C)c1ccnc(SC)c1` [Example 94]: the activity at 31 ppm in the assay with Fusarium culmorum amounted to 15%; in the assay on Septoria tritici, 1%; in the assay with Phytophthora infestans, 1%.

For `CO/N=C(/C(=O)OC)c1cccc(C)c1CO/N=C(\C)c1ncccc1F` [Example 74], the figures for the activity at 31 ppm in the assay on Septoria tritici and in the assay with Phytophthora infestans were 21% and 0%, respectively.

As to `CNC(=O)/C(=N/OC)c1cccc(C)c1CO/N=C(\C)c1ncccc1C(F)F` [Example 33], the activity at 31 ppm in the assay with Fusarium culmorum was determined as 11%; with Septoria tritici it was 4%; with Phytophthora infestans it was 14%.

Consider `CNC(=O)/C(=N/OC)c1cccc(C)c1CO/N=C(\C)c1cccc(C(F)(F)F)n1` [Example 2], for which the activity at 31 ppm was 7% in the assay with Fusarium culmorum, 12% in the assay on Septoria tritici and 18% with Phytophthora infestans.

In the case of `CO/N=C(/C(=O)OC)c1cccc(C)c1CO/N=C(\C)c1ccncc1` [Example 130], the results for the activity at 31 ppm in the assay with Fusarium culmorum and with Phytophthora infestans were 17% and 0%, respectively.

With `CNC(=O)/C(=N/OC)c1cccc(C)c1CO/N=C(\C)c1cc(C(F)(F)F)cc(C)n1` [Example 80], the activity at 31 ppm came out at 16% with Fusarium culmorum and 0% in the assay on Phytophthora infestans.

With `CNC(=O)/C(=N/OC)c1cccc(C)c1CO/N=C(\C)c1cccc(F)n1` [Example 107], the values for the activity at 31 ppm in the assay with Fusarium culmorum and in the assay with Phytophthora infestans were 16% and 0%, respectively.

With `CNC(=O)/C(=N/OC)c1cccc(C)c1CO/N=C(\C)c1ncc(-c2ccc(F)cc2)s1` [Example 78, (2E)-2-[2-[[(E)-1-[5-(4-fluorophenyl)thiazol-2-yl]ethylideneamino]oxymethyl]-3-methyl-phenyl]-2-methoxyimino-N-methyl-acetamide], the activity at 31 ppm with Fusarium culmorum was 16%; with Phytophthora infestans it was 3%.

Regarding `CO/N=C(/C(=O)OC)c1cccc(C)c1CO/N=C(\C)c1ncccc1C(F)F` [Example 24], the activity at 31 ppm in the assay with Septoria tritici turned out to be 0%; in the assay on Phytophthora infestans, 18%.

As for `CO/N=C(/C(=O)OC)c1cccc(C)c1CO/N=C(\C)c1cc(C#N)cc(Cl)n1` [Example 64], the activity at 31 ppm in the assay with Septoria tritici is 17%; in the assay with Phytophthora infestans it was 21%.

Consider `CO/N=C(/C(=O)OC)c1cccc(C)c1CO/N=C(\C)c1cc(C)ccn1` [Example 25], for which the activity at 31 ppm with Septoria tritici and with Phytophthora infestans was 0% throughout.

As to `CNC(=O)/C(=N/OC)c1cccc(C)c1CO/N=C(\C)c1cc(-c2ccccc2)on1` [Example 23], the activity at 31 ppm with Fusarium culmorum came to 5%; with Phytophthora infestans, 1%.

As to `CO/N=C(/C(=O)OC)c1cccc(C)c1CO/N=C(\C)c1ccnc(C(F)(F)F)c1` [Example 47], the activity at 31 ppm is 8% in the assay with Fusarium culmorum, 0% in the assay with Septoria tritici and 0% with Phytophthora infestans.

Turning to `CO/N=C(/C(=O)OC)c1cccc(C)c1CO/N=C(\C)c1cc(C(F)(F)F)ccn1` [Example 4, Methyl (2E)-2-methoxyimino-2-[3-methyl-2-[[(E)-1-[4-(trifluoromethyl)-2-pyridyl]ethylideneamino]oxymethyl]phenyl]acetate], the values for the activity at 31 ppm in the assay on Fusarium culmorum and in the assay on Septoria tritici were 10% and 11%, respectively.

`CNC(=O)/C(=N/OC)c1cccc(C)c1CO/N=C(\C)c1cc(C#N)ccn1` [Example 55]: the activity at 31 ppm came to 12% in the assay on Fusarium culmorum, 8% with Septoria tritici and 0% in the assay with Phytophthora infestans.

In the case of `CO/N=C(/C(=O)OC)c1cccc(C)c1CO/N=C(\C)c1ncccc1C(F)(F)F` [Example 27, Methyl (2E)-2-methoxyimino-2-[3-methyl-2-[[(E)-1-[3-(trifluoromethyl)-2-pyridyl]-ethylideneamino]oxymethyl]phenyl]acetate], the activity at 31 ppm in the assay on Septoria tritici is 5%.

As to `C#Cc1cnc(/C(C)=N/OCc2c(C)cccc2/C(=N\OC)C(=O)NC)s1` [Example 61], the activity at 31 ppm was found to be 11% with Fusarium culmorum and 19% with Phytophthora infestans.

Consider `CNC(=O)/C(=N/OC)c1cccc(C)c1CO/N=C(\C)c1ncccc1F` [Example 77], for which the results for the activity at 31 ppm with Fusarium culmorum and in the assay on Phytophthora infestans were 11% and 0%, respectively.

For `CO/N=C(/C(=O)OC)c1cccc(C)c1CO/N=C(\C)c1cn(C)nc1C(F)F` [Example 49], the activity at 31 ppm in the assay with Fusarium culmorum was 17%; with Phytophthora infestans it was 0%.

In the case of `CNC(=O)/C(=N/OC)c1cccc(C)c1CO/N=C(\C)c1cc(-c2cccc(C(F)(F)F)c2)sn1` [Example 39], the results for the activity at 31 ppm in the assay on Fusarium culmorum and with Phytophthora infestans were 14% and 8%, respectively.

For the compound `CNC(=O)/C(=N/OC)c1cccc(C)c1CO/N=C(\C)c1cncc(C(F)(F)F)n1` [Example 89, (2E)-2-Methoxyimino-N-methyl-2-[3-methyl-2-[[(E)-1-[6-(trifluoromethyl)pyrazin-2-yl]ethylideneamino]oxymethyl]phenyl]acetamide], the activity at 31 ppm amounted to 13% in the assay with Fusarium culmorum and 0% in the assay with Phytophthora infestans.

Consider `CNC(=O)/C(=N/OC)c1cccc(C)c1CO/N=C(\C)c1cc(C(F)F)nc(C)n1` [Example 62], for which the activity at 31 ppm with Fusarium culmorum stood at 11%; in the assay on Phytophthora infestans it was 0%.

`CNC(=O)/C(=N/OC)c1cccc(C)c1CO/N=C(\C)c1cc(-c2ccc(F)cc2)sn1` [Example 12, (2E)-2-[2-[[(E)-1-[5-(4-Fluorophenyl)isothiazol-3-yl]ethylideneamino]oxymethyl]-3-methyl-phenyl]-2-methoxyimino-N-methyl-acetamide]: the results for the activity at 31 ppm with Fusarium culmorum and with Phytophthora infestans were 11% and 2%, respectively.

For the compound `CNC(=O)/C(=N/OC)c1cccc(C)c1CO/N=C(\C)c1cncc(F)c1` [Example 76], the activity at 31 ppm in the assay with Fusarium culmorum turned out to be 16%; in the assay with Phytophthora infestans, 0%.
